We go through 38 sequences from the supplement of paper PMC11208160.
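Also: IS621 recombinase and bridge RNA in Escherichia coli cells.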

This data set can be described thus: recombinant barcode read abundance after kanamycin selection (control-corrected) (log10(CPM+1)); higher = more efficient recombination; sequences stand for … in AGTGCAGAGAAAATCGGCCAGTTTTCTCTGCCTGCAGTCCGCATGCCGT…AGATTTATGCAGCGGACTGCCTTTCTCCCAAAGTGATAAACCGGACAGTATCATGGACCGGTTTTCCCGGTAATCCGTATTTGCAAGGTTGGTTTCACT; site = the 11-nt target. The essentials: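 The screen was pooled in E. coli and paired targets with IS621 bridge RNA target-binding loops. Recombination efficiency is taken from barcode counts per million at recombinant junctions, averaged and adjusted against the control. Values, in the form log10(CPM+1), come from duplicate plating on chloramphenicol/ampicillin LB agar or on chloramphenicol/ampicillin/kanamycin with 0.1 mM IPTG.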
On to “GGACTAACTTGGGTTCTAACCTGTTGCCT (site GGACTAACTAG)”, for which the “recombinant barcode read abundance (log10)” value came out at 1.95.

Turning to “GGAGAGACTTGGGTTCTAACCTGTTGCAT (site ACGTGTCCTCC)”, the “recombinant barcode read abundance (log10)” value turned out to be 0.149.

As for “GGAGAGACTTGGGTTCTAACCTGTTGCAT (site GGAGAGACTAT)”, the “recombinant barcode read abundance (log10)” value was found to be 2.79.

Consider “GGAGATTCTTGGGTTCTAACCTGTTGCCT (site GGAGATTCTAG)”, for which the “recombinant barcode read abundance (log10)” value was 2.22.

Turning to “GGAGATTCTTGGGTTCTAACCTGTTGCCT (site GGAGTTGCTAG)”, the “recombinant barcode read abundance (log10)” value is 0.0142.

Take “GGAGCTCCTTGGGTTCTAACCTGTTGCCA (site CGAGCTCCTGG)”: the “recombinant barcode read abundance (log10)” value was 0.082.

As for “GGAGCTCCTTGGGTTCTAACCTGTTGCCA (site GGAGCTCCTTG)”, the “recombinant barcode read abundance (log10)” value stood at 0.371.

On to “GGAGGGACTTGGGTTCTAACCTGTTGCGT (site GGAGGGACTAC)”, for which the “recombinant barcode read abundance (log10)” value worked out at 2.97.

“GGAGGGACTTGGGTTCTAACCTGTTGCGT (site GGTCGGACTAC)”: the “recombinant barcode read abundance (log10)” value came to 0.0283.

Regarding “GGAGTCACTTGGGTTCTAACCTGTTGCGG (site GGAGTCACTCC)”, the “recombinant barcode read abundance (log10)” value was found to be 2.69.

As to “GGAGTCACTTGGGTTCTAACCTGTTGCGG (site TTGACACCTAG)”, the “recombinant barcode read abundance (log10)” value is 0.189.

Regarding “GGAGTGACTTGGGTTCTAACCTGTTGCTA (site GGAGTGACTAA)”, the “recombinant barcode read abundance (log10)” value was found to be 0.183.

Take “GGAGTGACTTGGGTTCTAACCTGTTGCTA (site GGAGTGACTTA)”: the “recombinant barcode read abundance (log10)” value was 1.61.

In the case of “GGATAGCCTTGGGTTCTAACCTGTTGCTT (site GGATAGCCTAA)”, the “recombinant barcode read abundance (log10)” value was determined as 0.939.

As to “GGATAGCCTTGGGTTCTAACCTGTTGCTT (site GGATGGACTAA)”, the “recombinant barcode read abundance (log10)” value was determined as 0.17.

As for “GGATATACTTGGGTTCTAACCTGTTGCCT (site GGATATACTAG)”, the “recombinant barcode read abundance (log10)” value was found to be 1.47.

In the case of “GGATATACTTGGGTTCTAACCTGTTGCCT (site GGATTTACTAG)”, the “recombinant barcode read abundance (log10)” value came to 0.186.

Consider “GGATATCCTTGGGTTCTAACCTGTTGCTT (site CAGGTGACTCC)”, for which the “recombinant barcode read abundance (log10)” value worked out at 0.

Turning to “GGATATCCTTGGGTTCTAACCTGTTGCTT (site GGATATCCTAA)”, the “recombinant barcode read abundance (log10)” value came to 0.284.

For the sequence “GGATCCTCTTGGGTTCTAACCTGTTGCCG (site GGATCCTCTCG)”, the “recombinant barcode read abundance (log10)” value came to 1.45.

Regarding “GGATCCTCTTGGGTTCTAACCTGTTGCCG (site GTTTCCTCTCG)”, the “recombinant barcode read abundance (log10)” value came out at 0.0317.

“GGATGCACTTGGGTTCTAACCTGTTGCCA (site GGATACACTTG)”: the “recombinant barcode read abundance (log10)” value turned out to be 0.237.

Regarding “GGATGCACTTGGGTTCTAACCTGTTGCCA (site GGATCCACTTG)”, the “recombinant barcode read abundance (log10)” value is 0.00874.

As to “GGATGCACTTGGGTTCTAACCTGTTGCCA (site GGATGCACTTG)”, the “recombinant barcode read abundance (log10)” value stood at 0.953.

For “GGATGCACTTGGGTTCTAACCTGTTGCCA (site GGATTCACTTG)”, the “recombinant barcode read abundance (log10)” value was 0.319.

For the sequence “GGATGTCCTTGGGTTCTAACCTGTTGCGT (site CTATGTCCTAC)”, the “recombinant barcode read abundance (log10)” value came to 0.29.

Take “GGATGTCCTTGGGTTCTAACCTGTTGCGT (site GGATGTCCTAC)”: the “recombinant barcode read abundance (log10)” value was 1.95.

“GGATTCACTTGGGTTCTAACCTGTTGCCA (site GGATACACTTG)”: the “recombinant barcode read abundance (log10)” value was 0.0986.

Turning to “GGATTCACTTGGGTTCTAACCTGTTGCCA (site GGATCCACTTG)”, the “recombinant barcode read abundance (log10)” value came out at 0.0631.

As to “GGATTCACTTGGGTTCTAACCTGTTGCCA (site GGATGCACTTG)”, the “recombinant barcode read abundance (log10)” value was 0.925.

On to “GGATTCACTTGGGTTCTAACCTGTTGCCA (site GGATTCACTTG)”, for which the “recombinant barcode read abundance (log10)” value amounted to 0.992.

Take “GGCACGACTTGGGTTCTAACCTGTTGCCT (site GGCACAACTAG)”: the “recombinant barcode read abundance (log10)” value amounted to 0.274.

With “GGCACGACTTGGGTTCTAACCTGTTGCCT (site GGCACCACTAG)”, the “recombinant barcode read abundance (log10)” value is 0.221.

As to “GGCACGACTTGGGTTCTAACCTGTTGCCT (site GGCACGACTAG)”, the “recombinant barcode read abundance (log10)” value turned out to be 0.323.

Turning to “GGCACGACTTGGGTTCTAACCTGTTGCCT (site GGCACTACTAG)”, the “recombinant barcode read abundance (log10)” value worked out at 0.0541.

As to “GGCACTCCTTGGGTTCTAACCTGTTGCCT (site GGCACTCCTAG)”, the “recombinant barcode read abundance (log10)” value turned out to be 0.351.

Take “GGCACTCCTTGGGTTCTAACCTGTTGCCT (site GGCATTCCTAG)”: the “recombinant barcode read abundance (log10)” value stood at 0.171.

For the sequence “GGCACTGCTTGGGTTCTAACCTGTTGCCT (site GGCACAGCTAG)”, the “recombinant barcode read abundance (log10)” value was found to be 0.332.
